In patent US9463188B2, “Osteopontin production inhibitor containing dictyopyrone derivative or dihydrodictyopyrone derivative as active ingredient” (TOHOKU UNIVERSITY, priority 2013, dated 2016):

Key:
[1] = system: human OPN promoter (pOPN1-luc) in A549/OPNluc cells; assay: Luciferase assay: luciferase expression under control of OPN promoter; type: cell-based; details: for EC50 value relative to respective IC50 value: EC50 luciferase assay vs IC50 WST assay; for EC50: Homo sapiens, 48±4 hours, read-out: EC50 (concentration for 50% inhibition of luciferase expression under control of OPN promoter)
Text: (§1) A reporter vector pOPN1-luc obtained by inserting a human OPN promoter sequence (−765 to 23) into the multiple cloning site of pGL-3 basic vector (Promega) expresses luciferase when transfected into animal cells. This pOPN1-luc was transfected into a human non-small cell lung cancer-derived cell line A549 together with pPUR (Clontech) that expresses a puromycin resistance gene (puromycin-N-acetyl-transferase gene), and cells that could grow in a puromycin-supplemented medium and expressed luciferase were selected. The selected cells were named A549/OPNluc cells and used for observation of luciferase expression inhibitory effect under control of OPN promoter, as described later.
(§2) A test compound was added to a culture liquid containing A549/OPNluc cells to observe its influence on the amount of luciferase expressed in the cells. Here, it can be considered that when the test compound has cytotoxity or cell growth-suppressing effect, the total expression level of luciferase is reduced due to a reduction in the number of living cells that depends on the concentration of the test compound, and therefore the luciferase expression inhibitory effect of the test compound under control of OPN promoter cannot be properly evaluated. For this reason, WST assay for quantification of cell proliferation ability or cell viability by colorimetric measurement was first performed to determine IC50 (concentration for 50% inhibition of cell growth) of the test compound for cell growth. Then, luciferase activity measurement was performed to determine EC50 (concentration for 50% inhibition of luciferase expression) of the test compound for luciferase expression under control of OPN promoter.
The same steps as in the above-described WST assay were performed in which only DMSO (control) or the diluted test compound (sample) solution was added in an amount of 0.5 μL to each well containing the cell suspension to achieve 200-fold dilution, and the solution in each well was mixed with a vortex mixer, and the 96-well plate was incubated in a CO2 incubator (at 37° C. and 5% CO2) for 48±4 hours.
A luciferase reagent was prepared by dissolving Luciferase Assay Substrate (hereinafter, referred to as “LAS”) supplied in Luciferase Assay Systems (Promega: Cat# E1500) with Luciferase Assay Buffer (LAB). 5× Cell Culture Lysis Reagent (hereinafter, referred to as “CCLR”) was diluted with water 5-fold to prepare 1×CCLR.
After the incubation for 48±4 hours, the medium in each well was completely removed, and 50 μL of 1×CCLR was dispensed into each well. The 96-well plate was allowed to stand at room temperature for 30 minutes, and then 1×CCLR in each well was used as an assay sample. The luciferase reagent of 100 μL was placed in a tube for chemiluminescence measurement, and 20 μL of the assay sample was added to the tube and mixed with the luciferase reagent to measure chemiluminescence (Relative Luminescence Intensity: RLU) using Tuner Design Luminometer 20/20 (Promega).
(§3) The RLU values of the control wells and the RLU values of the sample wells at each concentration were input into an Excel file, and the percentages of RLU values of the sample wells at each concentration with respect to the average of RLU values of the control wells were determined. From these values, a fitted curve was determined by the method of least squares to calculate EC50.

A549/OPNluc cells = assay: WST assay (cell growth inhibition); type: cell-based; details: Homo sapiens, 48±4 hours, WST-1, read-out: IC50 (concentration for 50% inhibition of cell growth)
Text: as §1, §2
A549/OPNluc cells were suspended in DMEM medium containing 10% fetal calf serum (FCS) and 1% penicillin/streptomycin (P/S) at 3×10^4 cells/mL to obtain a cell suspension, and 100 μL of the cell suspension was dispensed into each well of a 96-well plate. In order to perform the assay in triplicate, 3 wells were prepared for a control group and 3 wells were prepared for each test compound-treated group at each concentration. After the dispensing, the 96-well plate was incubated in a CO2 incubator (at 37° C. and 5% CO2) for 24±4 hours.
The test compound was dissolved in dimethylsulfoxide (DMSO) to obtain a 50 mmol/L solution, and the test compound solution was stored at −80° C. The test compound solution was diluted with DMSO in 2-fold dilution series (usually, in the range of 0.31 mmol/L to 20 mmol/L) to prepare test compound solutions whose concentration varied by two fold for WST assay.
Only DMSO (control) or the diluted test compound (sample) solution was dispensed in an amount of 0.5 μL into each well containing the cell suspension (200-fold dilution). The solution in each well was mixed with a vortex mixer, and then the 96-well plate was incubated in a CO2 incubator (at 37° C. and 5% CO2) for 48±4 hours. Then, 10 μL of Premix WST-1 Reagent (TAKARA BIO INC.) was added to each well. The solution in each well was mixed with a vortex mixer, and then the 96-well plate was incubated at 37° C. and 5% CO2. After 60 minutes or 120 minutes, absorbance values (450 nm) were measured using a microplate reader (Bio-Rad; Benchmark or Thermo Scientific; Varioskan Flash).
as §3, with “absorbance” for “RLU”, “file to determine” for “file, and”, “wells.” for “wells were determined.”, “the determined” for “these”, “IC50.” for “EC50.”

CCCCCCCCCCCC(O)[C@H]1C(=O)O[C@@H](C)C[C@@H]1C (stereo partly drawn) [Chemical formula 15]
EC50 value relative to respective IC50 value [1]: ½ | EC50 [1]: 43.4 µM | IC50 (A549/OPNluc cells): 88 µM

CCCCCCCCCCCC(=O)[C@H]1C(=O)O[C@H](C)C[C@@H]1C [Chemical formula 13]
EC50 [1]: > 50 µM | IC50 (A549/OPNluc cells): > 50 µM

CCCCCCCCCCCC(=O)C1=C(C)C[C@H](C)NC1=O [Chemical formula 2]
EC50 value relative to respective IC50 value [1]: ½ | EC50 [1]: 29.5 µM | IC50 (A549/OPNluc cells): 59.1 µM

CCCCCCCCCCCC(=O)C1=C(C)C[C@H](C)OC1=O [Chemical formula 5]
EC50 [1]: 63 µM | IC50 (A549/OPNluc cells): 129 µM

COC(=O)CCCCCCC(=O)C1=C(C)C[C@H](C)OC1=O [Chemical formula 9, methyl (S)-8-(4,6-dimethyl-2-oxo-5,6-dihydro-2H-pyran-3-yl)-8-Oxooctanoate]
EC50 [1]: > 100 µM | IC50 (A549/OPNluc cells): > 100 µM

CCCC(=O)C1=C(C)C[C@H](C)OC1=O [Chemical formula 6]
EC50 [1]: > 100 µM | IC50 (A549/OPNluc cells): > 100 µM

CCCC(=O)C1=C(C)C[C@H](C)NC1=O [Chemical formula 10, (S)-3-butanoyl-5,6-dihydro-4,6-dimethyl-1H-pyridin-2-one]
EC50 [1]: 63 µM | IC50 (A549/OPNluc cells): 110 µM

CCCCCCCC(=O)C1=C(C)C[C@H](C)NC1=O [Chemical formula 11, (S)-5,6-dihydro-4,6-dimethyl-3-octanoyl-1H-pyridin-2-one]
EC50 [1]: > 100 µM | IC50 (A549/OPNluc cells): > 100 µM

CCCCCCCCCCC/C(OC(C)=O)=C1\C(=O)O[C@@H](C)C[C@@H]1C [Chemical formula 16]
EC50 value relative to respective IC50 value [1]: ½ | EC50 [1]: 31.1 µM | IC50 (A549/OPNluc cells): > 100 µM

CCCCCCCCCCCC(=O)C1=C(C)CC(C)(C)OC1=O [Chemical formula 1]
EC50 value relative to respective IC50 value [1]: ½ | EC50 [1]: 24.4 µM | IC50 (A549/OPNluc cells): 129 µM

CCCCCCCC(=O)C1=C(C)C[C@H](C)OC1=O [Chemical formula 7]
EC50 [1]: > 100 µM | IC50 (A549/OPNluc cells): > 100 µM

CCCCCCCCCCCC(=O)[C@@H]1C(=O)N[C@@H](C)C[C@H]1C [Chemical formula 4]
EC50 value relative to respective IC50 value [1]: ½ | EC50 [1]: 19.7 µM | IC50 (A549/OPNluc cells): 42.5 µM

CCCCCCCCCCCC(=O)[C@@H]1C(=O)O[C@@H](C)C[C@H]1C [Chemical formula 12]
EC50 [1]: > 50 µM | IC50 (A549/OPNluc cells): > 50 µM

CCCCCCCCCCCC(=O)C1=C(C)C[C@@H](C)OC1=O [Chemical formula 8]
EC50 value relative to respective IC50 value [1]: ½ | EC50 [1]: 55 µM | IC50 (A549/OPNluc cells): 111 µM

CCCCCCCCCCCC(=O)[C@H]1C(=O)OC(C)(C)C[C@@H]1C [Chemical formula 14]
EC50 [1]: 29.5 µM | IC50 (A549/OPNluc cells): 54.1 µM
